Measurements from article PMC4277828 (BMC Pharmacology & Toxicology, 2014).
Where “and” joins values, the source holds several entries; their conditions need not be identical. Equal values may be shown once. Entries after “also recorded” stand apart in the source; their conditions may differ. Read-outs that look alike come from different tables or passages of the source. Marks after values point to notes of the source that are not given here.

How the values were obtained:
[1] = design: method as in PMID 15844071; conditions: cited from earlier work
[2] = clinical; conditions: human, plasma, oral, 300 mg
[3] = Tolerability and safety of rifabutin and LPV/r: clinical and laboratory adverse events (DAIDS grading)
[4] = Steady-state plasma pharmacokinetics of rifabutin and 25-O-desacetylrifabutin with and without LPV/r-based ART (three-period crossover, LC/MS/MS, non-compartmental analysis); conditions: for AUC(0-t): human, plasma, oral, median (interquartile range), n = 14
[5] = in vivo, 300 mg
[6] = human, in vivo
[7] = Steady-state plasma pharmacokinetics of lopinavir given with two rifabutin doses (LCMS/MS, non-compartmental analysis); conditions: for AUC(0-t): human, plasma, oral, Median (Interquartile range), 14 patients
[8] = RBT dose at time of AE 150 mg daily (with LPV/r ART), listed as RBT
[9] = RBT dose at time of AE 150 mg tiw (with LPV/r ART), listed as RBT
[10] = sixteen patients, all rifabutin doses

In the case of `CO[C@H]1/C=C/O[C@@]2(C)Oc3c(C)c(O)c4c(c3C2=O)C2=NC3(CCN(CC(C)C)CC3)NC2=C(NC(=O)/C(C)=C\C=C\[C@H](C)[C@H](O)[C@@H](C)[C@@H](O)[C@@H](C)[C@H](OC(C)=O)[C@@H]1C)C4=O` [Rifabutin, rifabutin], the “Patients who relapsed or failed therapy that developed ARR” value ([1]; TB-HIV co-infected patients with AUC0–24 < 4.5 μg.h/mL) is given as 83%, the “Patients who relapsed or failed therapy that developed ARR” value ([1]; TB-HIV co-infected patients with AUC above the threshold of 4.5 μg.h/mL) is given as 33% and the Cmax [2] is given as 292 ng/mL. The “AE (grade 3 laboratory adverse event, individual subject)” value [3, 8] was “Neutropenia; also recorded: AST increased; also recorded: Amylase increased”, the “Days on RBT at grade 3 laboratory AE (individual subject)” value (“Days on RBT at grade 3 laboratory AE” below) [3, 8] was 53 days and 77 days and 106 days and 113 days and 57 days and the “AE (grade 3 laboratory adverse event, individual subject)” value [3, 9] was “AST increased; also recorded: Amylase increased; also recorded: Neutropenia”. The “Days on RBT at grade 3 laboratory AE” value [3, 9] was 96 days and 119 days and 112 days, the “AE (grade 3 laboratory adverse event, individual subject)” value ([3]; RBT dose at time of AE 300 mg daily) was “Neutropenia” and the “Days on RBT at grade 3 laboratory AE” value ([3]; RBT dose at time of AE 300 mg daily, listed as RBT) was 29 days and 27 days and 28 days. The “Grade 4 laboratory toxicities / events” value ([3]; all doses, sixteen patients) was “no grade 4 laboratory toxicities”, the Tolerability ([3]; all doses, sixteen patients) was “well tolerated” and the “Grade 4 laboratory toxicities / events” value ([3]; all doses, sixteen patients, listed as rifabutin) was “no grade 4 laboratory events”. The “Association between plasma concentration and adverse events such as neutropenia or elevated transaminases” value ([3]; human, in vivo) was “unable to show a significant association”, the Uveitis ([3]; patient taking rifabutin 300 mg daily, after 1 month of rifabutin, prior to / coinciding with start of ART) was “One case of uveitis (grade 4); also recorded: Grade 2 uveitis occurred in one patient” and the Serious adverse events ([3]; sixteen patients) was “two serious adverse events (bacterial meningitis and pyelonephritis), both considered unrelated to rifabutin”. The “Grade 3 elevations in transaminases and amylase, number” value [3, 10] was 2, the “Grade 3 neutropenia, number of occasions” value [3, 10] was 7 occasions and the “Grade 3 neutropenia, number of patients” value [3, 10] was 4 patients and 5 patients. The “GMR (90% CI) of Cmin24h” value ([4]; RBT 150 mg daily (with LPV/r ART) with RBT 300 mg daily) was 2.7 (2.2 – 3.2), the “GMR (90% CI) of Cmin24h” value ([4]; RBT 150 mg tiw (with LPV/r ART) with RBT 300 mg daily) was 1.2 (1.0 – 1.4) and the “GMR (90% CI) of Cmin24h” value ([4]; RBT 150 mg tiw with RBT 150 mg daily (both with LPV/r ART)) was 0.5 (0.4 – 0.5). The “Increase in AUC0–24” value ([4]; daily dose of 150 mg compared to the three times a week dose, both with LPV/r) was “more than two fold increase”, the AUC(0-t) ([4]; 150 mg, AUC0–24, Rifabutin 150 mg daily plus LPV/r, steady state) was 4770 ng·h/mL and the AUC(0-t) ([4]; 150 mg, AUC0–24, Rifabutin 150 mg tiw plus LPV/r, steady state) was 2310 ng·h/mL. It also gave an AUC(0-t) ([4]; 150 mg, AUC0–48, Rifabutin 150 mg daily plus LPV/r, calculated by 2X AUC0–24) of 9530 ng·h/mL, an AUC(0-t) ([4]; 300 mg, AUC0–24, Rifabutin 300 mg daily without LPV/r, steady state) of 3050 ng·h/mL and an AUC(0-t) ([4]; 300 mg, AUC0–48, Rifabutin 300 mg daily without LPV/r, calculated by 2X AUC0–24) of 6110 ng·h/mL. For the same molecule, the “Patients with AUC0–24 values >4.5 μg.h/mL” value ([4]; rifabutin 150 mg daily with LPV/r) was 71%, the “Patients with AUC0–24 values >4.5 μg.h/mL” value ([4]; rifabutin tiw dosing with LPV/r) was 14% and the “Patients with AUC0-24 < 4.5 μg.h/mL” value ([4]; tiw rifabutin arm (150 mg tiw with LPV/r)) was 86%.

With 25-O-desacetylrifabutin [d-RBT] the “AUC0–48” value [5] was 546.6 (471.4-688.2)^* ng.h/mL and the “Association between plasma concentration and adverse events such as neutropenia or elevated transaminases” value [6] was “unable to show a significant association”.

In the case of `Cc1cccc(C)c1OCC(=O)N[C@@H](Cc1ccccc1)[C@@H](O)C[C@H](Cc1ccccc1)NC(=O)[C@H](C(C)C)N1CCCNC1=O` [lopinavir], the “Median lopinavir trough (C0) concentrations versus recommended lower limit for ART-naïve patients” value ([7]; both rifabutin doses) is reported as > 1 µg, the AUC(0-t) ([7]; AUC0–12, RBT 150 mg daily plus LPV/r (400/100 mg)) is reported as 160000 ng·h/mL and the AUC(0-t) ([7]; AUC0–12, RBT 150 mg tiw plus LPV/r (400/100 mg)) is reported as 140000 ng·h/mL. The “Differences in AUC0–12 and Cmax between the two doses of rifabutin” value ([7]; rifabutin 150 mg daily versus 150 mg tiw) was “not significant”.
